Results from ChEMBL document CHEMBL1127701, “Antineoplastic agents. 278. Isolation and structure of axinastatins 2 and 3 from a western Caroline Island marine sponge” (1994).
Values after ≈ are worked out from the molar mass of the structure shown. Where a SMILES comes first, the peptide text is derived from it.

Key:
Type in all cases: functional
[1] = system: NCI-H460; experiment: Tested for cytostatic activity against lung-NSC […] cell line; details: Homo sapiens
[2] = system: OVCAR-3; experiment: Tested for cytostatic activity against ovarian OVCAR-3 cell line; details: Homo sapiens
[3] = system: KM-20L2; experiment: Tested for cytostatic activity against colon KM20L2 cell line; details: Homo sapiens
[4] = system: SF-295; experiment: Tested for cytostatic activity against CNS SF-295 cell line; details: Homo sapiens
[5] = system: SK-MEL-5; experiment: Tested for cytostatic activity against melanoma SK-MEL-5 cell line; details: Homo sapiens
[6] = system: A498; experiment: Tested for cytostatic activity against renal A498 cell line; details: Homo sapiens
[7] = system: P388; experiment: Tested for in vitro cytotoxicity against the murine leukemia P388 cell line; details: Mus musculus, read-out: ED50 (the source's name)

GI50 [1] [µg/mL]	GI50 [2] [µg/mL]	GI50 [5] [µg/mL]	Structure (SMILES)	GI50 [3] [µg/mL]	GI50 [4] [µg/mL]	GI50 [6] [µg/mL]	EC50 [7] [µg/mL]
0.033 (≈ 0.0423 µM)	0.0072 (≈ 0.00922 µM)	0.012 (≈ 0.0154 µM)	CC[C@H](C)[C@@H]1NC(=O)[C@H](Cc2ccccc2)NC(=O)[C@@H]2CCCN2C(=O)[C@H](CC(N)=O)NC(=O)[C@H](C(C)C)NC(=O)[C@@H]2CCCN2C(=O)[C@H](CC(C)C)NC1=O (cyclo(FILPVNP))	0.055 (≈ 0.0704 µM)	0.18 (≈ 0.23 µM)	0.11 (≈ 0.141 µM)	
0.19 (≈ 0.248 µM)	0.058 (≈ 0.0756 µM)	0.068 (≈ 0.0887 µM)	CC(C)C[C@@H]1NC(=O)[C@H](C(C)C)NC(=O)[C@H](Cc2ccccc2)NC(=O)[C@@H]2CCCN2C(=O)[C@H](CC(N)=O)NC(=O)[C@H](C(C)C)NC(=O)[C@@H]2CCCN2C1=O (cyclo(FVLPVNP))	0.23 (≈ 0.3 µM)	0.35 (≈ 0.456 µM)	0.38 (≈ 0.495 µM)	0.02 (≈ 0.0261 µM)
